From patent US20140105919A1, “SYNERGISTIC INHIBITION OF ERBB2/ERBB3 SIGNAL PATHWAYS IN THE TREATMENT OF CANCER” (Institute for Cancer Research d/b/a The Research Institute …, priority 2011, published 2014)

Tests used:
Type in all cases: cell-based
[1] = test system: MB361/DYT2 breast cancer cells; assay: secondary validation screen with single siGENOME siRNAs with or without MM-111, CellTiter-Blue viability; parameters: Vehicle (viability score) / Drug (viability score): scale not given here; conditions: for Ratio (drug:vehicle viability): single siRNA; for Drug (viability score): single siRNA and MM-111; for Vehicle (viability score): single siRNA only (vehicle)
Experimental: Subsets of targets that met criteria of being expressed in the cells and having an FDR of <5% or being expressed in the cells, having an FDR <20%, and having a known connection to ErbB signaling, were validated in a secondary screen in which MB361/DYT2 breast cancer cells were treated with siRNA molecules from the Dharmacon® siGENOME library (Dharmacon, Inc.). Parallel cells were treated with the siRNA only (vehicle) or both the siRNA and the ErbB2/ErbB3 bispecific antibody MM-111, and sensitization of the cells was measured by the CellTiter-Blue® (Promega) viability assay.

[2] = test system: Notch signaling (CBF1 reporter) in BT-474 cells; assay: Notch-dependent activation of CBF-1 reporter (Dual-Luciferase Assay); conditions: MM-111 and Compound E
Experimental: BT-474 cells were co-transfected with CBF1::firefly luciferase and pRL-TK (renilla luciferase) as an internal control for transfection efficiency. Cells were then treated with MM-111, MM-111 and Compound E, or Rituximab (control antibody), and the ratio of firefly/renilla expression was measured using the Dual-Luciferase Assay (Promega) according to the manufacturer's instructions.

BT474 cells = assay: Cell sensitization to MM-111 and gamma-secretase inhibitor, CellTiter-Blue viability; conditions: BT474, 72 hrs; Compound E 1 μM, MM-111 2 μM, alone or combined; vs DMSO
Experimental: Inhibition of the Notch pathway was carried out with a compound. Breast cancer cells (BT474 cells) were plated in 96-well plates in DMEM/F12 media with 1% FBS and incubated in a humidified CO2 incubator at 37° C. for 24 hours prior to drug treatment. The media was replaced with DMEM/F12 media with 1% FBS containing DMSO, 1 μM Compound E (Santa Cruz, SC-221433), 2 μM MM-111 (Merrimack Pharmaceuticals), or combined Compound E and MM-111. Cells were incubated in the presence of drug for 72 hrs. CellTiter-Blue® (Promega) was used to measure cell viability according to the standard protocol. The total incubation time in the presence of CellTiter-Blue® was 4 hours, and fluorescence was measured using a Perkin Elmer Envision Plate Reader.

[3] = test system: Notch target genes in MB-361/DYT2 cells; assay: Real time PCR of endogenous Notch target genes HES1, HES5, HEY1; conditions: MB361/DYT2; compared to untreated, DMSO or Rituximab
Experimental: MB-361/DYT2 cells were left untreated (NT) or treated with DMSO (vehicle for Compound E), rituximab (control antibody), Compound E, MM-111, or MM-111 and Compound E. Total RNA was extracted from cells using the RNeasy kit (Qiagen). Total RNA was reverse transcribed to cDNA, and real time PCR was performed, using ABI primer/probe sets, on cDNAs to detect relative expression of the validated Notch target genes HES1 (ABI Assay ID Hs00172878_m1), HES5 (ABI Assay ID Hs01387463_g1), or HEY1 (ABI Assay ID Hs01114113_m1).

Compound	Ratio (drug:vehicle viability) [1]	Drug (viability score) [1]	Vehicle (viability score) [1]	MM-111-induced CBF1 reporter activity [2]	cell viability / cell killing (BT474 cells)	expression of Notch target genes HES1, HES5, and HEY1 [3]
CCACACGGUUUAAGUCUAU (listed as RNA, chemistry not given here; listed as Homo sapiens) [SEQ ID NO: 50, Dharmacon siGENOME siRNA targeting RFNG]	0.939	1.250	1.331	–	–	–
GGUUGUGCCUGGAGGUGGA (listed as RNA, chemistry not given here; listed as Homo sapiens) [SEQ ID NO: 24, Dharmacon siGENOME siRNA targeting TPT1]	0.845	0.775	–	–	–	–
CCAAAGGCCUGACCGUUAA (listed as RNA, chemistry not given here; listed as Homo sapiens) [SEQ ID NO: 26, Dharmacon siGENOME siRNA targeting AAMP]	0.844	0.821	0.973	–	–	–
GGUGUUGUCUGGUCAGUAA (listed as RNA, chemistry not given here; listed as Homo sapiens) [SEQ ID NO: 19, Dharmacon siGENOME siRNA targeting NLK]	0.776	0.991	0.993	–	–	–
GAAGAUACUUGGCACUAUU (listed as RNA, chemistry not given here; listed as Homo sapiens) [SEQ ID NO: 21, Dharmacon siGENOME siRNA targeting SC4MOL]	0.877	0.955	1.089	–	–	–
C[C@H](NC(=O)Cc1cc(F)cc(F)c1)C(=O)N[C@H]1N=C(c2ccccc2)c2ccccc2N(C)C1=O [Compound E]	–	–	–	the activity is blocked	no effect on viability	reduced
CAUAAGCCCUGCAAGAAUG (listed as RNA, chemistry not given here; listed as Homo sapiens) [SEQ ID NO: 17, Dharmacon siGENOME siRNA targeting DLL1]	0.823	0.812	0.987	–	–	–
GGGUCGCUGUGAUGAAAUU (listed as RNA, chemistry not given here; listed as Homo sapiens) [SEQ ID NO: 45, Dharmacon siGENOME siRNA targeting DCI]	0.762	0.627	0.823	–	–	–
GCAGCAAGACCAAGAAAUC (listed as RNA, chemistry not given here; listed as Homo sapiens) [SEQ ID NO: 57, Dharmacon siGENOME siRNA targeting CYR61]	0.856	0.846	0.988	–	–	–
